Experiment [1] deals with blackgrass. Briefly: Test A preemergence. The class given is in vivo, Alopecurus myosuroides. The following applies: Alopecurus myosuroides, pre-emergence, 240 h, visual injury after 10 days, 0 to 100 scale, 0 is no effect, 100 is complete control, read-out: Plant response rating, Blackgrass. The method, boiled down:
(§1)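 Seeds in loam–sand blend received a directed preemergence soil spray of compound in non-phytotoxic solvent with surfactant; postemergence plants (2–10 cm, one- to two-leaf stage) were sprayed with the same formulation. After 10 days in greenhouse, injury was rated visually versus untreated controls, 0 (no effect) to 100 (complete control).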

The test system of experiment [2] is foxtail, giant. Kind of experiment: Test A preemergence. The class given is in vivo, Setaria faberi. The following applies: Setaria faberi, pre-emergence, 240 h, read-out: Plant response rating, Foxtail, Giant; for pest or weed control at 125 g/ha: 125 g ai/ha; for pest or weed control at 500 g/ha: 500 g ai/ha. The method, boiled down: as §1
Experiment [3] relates to goosegrass. Kind of experiment: Test A preemergence. The following applies: Eleusine indica, pre-emergence, 240 h, read-out: Plant response rating, Goosegrass; for pest or weed control at 125 g/ha: 125 g ai/ha; for pest or weed control at 500 g/ha: 500 g ai/ha. The experiment is classed as in vivo, Eleusine indica. A digest of the protocol:
as §1

The subject of a further experiment is soybean. Kind of experiment: Test A preemergence. The experiment is classed as in vivo, Glycine max. The following applies: Glycine max, pre-emergence, 240 h, read-out: Plant response rating, Soybean; for plant injury at 125 g/ha: 125 g ai/ha; for plant injury at 500 g/ha: 500 g ai/ha. The method, boiled down: as §1
Experiment [4] deals with blackgrass. Kind of experiment: Test A postemergence. The following applies: Alopecurus myosuroides, post-emergence, 240 h; for pest or weed control at 125 g/ha: 125 g ai/ha; for pest or weed control at 500 g/ha: 500 g ai/ha. The class given is in vivo, Alopecurus myosuroides. A digest of the protocol:
as §1

The test system of experiment [5] is foxtail, giant. Kind of experiment: Test A postemergence. The following applies: Setaria faberi, post-emergence, 240 h, postemergence, 10 days, 0 to 100 scale (0 no effect, 100 complete control); for pest or weed control at 125 g/ha: 125 g ai/ha; for pest or weed control at 500 g/ha: 500 g ai/ha. The class given is in vivo, Setaria faberi. The method, boiled down: as §1

The test system of experiment [6] is goosegrass. Briefly: Test A postemergence. The class given is in vivo, Eleusine indica. The following applies: Eleusine indica, post-emergence, 240 h, postemergence, 10 days, 0 to 100 scale (0 no effect, 100 complete control); for pest or weed control at 125 g/ha: 125 g ai/ha; for pest or weed control at 500 g/ha: 500 g ai/ha. The method, boiled down:
as §1

A further experiment deals with oat, wild. Briefly: Test A postemergence. The experiment is classed as in vivo, Avena fatua. The following applies: Avena fatua, post-emergence, 240 h, postemergence, 10 days, 0 to 100 scale (0 no effect, 100 complete control); for pest or weed control at 500 g/ha: 500 g ai/ha, visual injury, read-out: Plant response rating, Oat, Wild. The method, boiled down:
as §1

A further experiment has as its system pigweed, palmer. Kind of experiment: Test A postemergence. The experiment is classed as in vivo, Amaranthus palmeri. The following applies: Amaranthus palmeri, post-emergence, 240 h, postemergence, 10 days, 0 to 100 scale (0 no effect, 100 complete control); for pest or weed control at 500 g/ha: 500 g ai/ha, visual injury, read-out: Plant response rating, Pigweed, Palmer. A digest of the protocol:
as §1

Another experiment has as its system ragweed. Briefly: Test A postemergence. The class given is in vivo, Ambrosia artemisiifolia. The following applies: Ambrosia artemisiifolia, post-emergence, 240 h, postemergence, 10 days, 0 to 100 scale (0 no effect, 100 complete control); for pest or weed control at 500 g/ha: 500 g ai/ha, visual injury, read-out: Plant response rating, Ragweed. A digest of the protocol: as §1

The next experiment concerns ryegrass, Italian. Briefly: Test A postemergence. The class given is in vivo, Lolium multiflorum. The following applies: Lolium multiflorum, post-emergence, 240 h, postemergence, 10 days, 0 to 100 scale (0 no effect, 100 complete control); for pest or weed control at 500 g/ha: 500 g ai/ha, visual injury, read-out: Plant response rating, Ryegrass, Italian. A digest of the protocol: as §1

For the next experiment, the system named is wheat. Kind of experiment: Test A postemergence. The experiment is classed as in vivo, Triticum aestivum. The following applies: Triticum aestivum, post-emergence, 240 h, postemergence, 10 days, 0 to 100 scale (0 no effect, 100 complete control); for plant injury at 500 g/ha: 500 g ai/ha, visual injury, read-out: Plant response rating, Wheat. A digest of the protocol:
as §1

Another experiment concerns galium. Briefly: Test A postemergence. The experiment is classed as in vivo, Galium aparine. The following applies: Galium, post-emergence, 240 h, postemergence, 10 days, 0 to 100 scale (0 no effect, 100 complete control); for pest or weed control at 125 g/ha: 125 g ai/ha; for pest or weed control at 500 g/ha: 500 g ai/ha. The method, boiled down:
as §1

A further experiment deals with sedge, umbrella. Kind of experiment: Test B flooded paddy test. The following applies: Cyperus difformis, 312 h; 250 g ai/ha, Flood, 13 days, 0 to 100 scale (0 no effect, 100 complete control); read-out: Plant response rating, Sedge, Umbrella. The class given is in vivo, Cyperus difformis. The method, boiled down:
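Flooded to 3 cm at treatment time, 2-leaf plants got the test compound applied straight into the paddy water. They then stayed under constant flood in a greenhouse for 13 days. Ratings used a 0 to 100 visual scale.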

Setting [7] is: visual injury after 10 days, 0 to 100 scale, 0 is no effect, 100 is complete control.
The mark [8] stands for this setting: postemergence, 10 days, visual injury, 0 to 100 scale (0 no effect, 100 complete control), read-out: Plant response rating, Blackgrass.
Setting [9] is: visual injury, read-out: Plant response rating, Foxtail, Giant.
Setting [10] is: visual injury, read-out: Plant response rating, Goosegrass.
The mark [11] stands for this setting: visual injury, read-out: Plant response rating, Galium.
[12] abbreviates: 0 to 100 scale (0 no effect, 100 complete control), 10 days.

Like-named read-outs stand apart in the source and are kept apart here.

Consider `C[C@H]1CN(C(=O)c2cccc(-c3cnn(C)n3)c2)c2cccc(Cl)c2O1` [Compound 127, [(2S)-8-Chloro-2,3-dihydro-2-methyl-4H-1,4-benzoxazin-4-yl][3-(2-methyl-2H-1,2,3-triazol-4-yl)phenyl]methanone], for which the pest or weed control at 125 g/ha amounted to 20% in the experiment on blackgrass [1] (125 g ai/ha); 90% in the experiment with foxtail, giant [2] (setting [7]); 60% with goosegrass [3] (setting [7]); 0% in the experiment with blackgrass [4] (postemergence, 10 days, 0 to 100 scale (0 no effect, 100 complete control), read-out: Blackgrass plant response rating); 50% with foxtail, giant [5] (read-out: Foxtail, Giant plant response rating); 10% with goosegrass [6] (read-out: Goosegrass plant response rating). Further, the pest or weed control at 125 g/ha in the experiment on oat, wild (125 g ai/ha, read-out: Oat, Wild plant response rating) turned out to be 0%; with pigweed, palmer (125 g ai/ha, read-out: Pigweed, Palmer plant response rating), 60%; with ragweed (125 g ai/ha, read-out: Ragweed plant response rating), 0%; in the experiment with ryegrass, Italian (125 g ai/ha, read-out: Ryegrass, Italian plant response rating), 10%; in the experiment on galium (read-out: Galium plant response rating), 60%. For the same compound, the pest or weed control at 500 g/ha with blackgrass [1] (500 g ai/ha) amounted to 70%; in the experiment on foxtail, giant [2] (setting [7]) it was 100%; with goosegrass [3] (setting [7]) it was 100%; in the experiment on blackgrass [4] (setting [8]) it was 80%; in the experiment on foxtail, giant [5] (setting [9]) it was 90%; in the experiment on goosegrass [6] (setting [10]), 70%. Moreover, the pest or weed control at 500 g/ha was 10% in the experiment on oat, wild; 90% in the experiment on pigweed, palmer; 10% in the experiment with ragweed; 50% in the experiment with ryegrass, Italian; 100% in the experiment on galium (setting [11]). Further, the plant injury at 125 g/ha with soybean (setting [7]) came out at 0%; with wheat (125 g ai/ha, read-out: Wheat plant response rating) it was 10%. Further, the values for the plant injury at 500 g/ha in the experiment with soybean (setting [7]) and in the experiment with wheat were 0% and 20%, respectively. The pest or weed control at 250 g/ha with sedge, umbrella is 0%.

Consider `Cc1ccc(-n2cnc(C(C)(C)C)n2)cc1C(=O)N1C[C@H](C)Oc2c(Cl)cccc21` [Compound 76, [(2S)-8-Chloro-2,3-dihydro-2-methyl-4H-1,4-benzoxazin-4-yl][5-[3-(1,1-dimethylethyl)-1H-1,2,4-triazol-1-yl]-2-methylphenyl]methanone], for which the pest or weed control at 125 g/ha in the experiment on foxtail, giant [2] (setting [7]) stood at 90%; with goosegrass [3] (setting [7]), 100%; in the experiment with blackgrass [4] (setting [8]) it was 70%; in the experiment on foxtail, giant [5] (setting [9]), 90%; in the experiment with goosegrass [6] (setting [10]) it was 50%; with galium (setting [11]), 100%. For the same compound, the pest or weed control at 500 g/ha with foxtail, giant [2] (setting [12]) was determined as 100%; in the experiment with goosegrass [3] (setting [12]), 100%; in the experiment on blackgrass [4] (Postemergence, 0 to 100 scale, read-out: Plant response rating, Blackgrass), 70%; in the experiment with foxtail, giant [5] (setting [9]), 90%; with goosegrass [6] (setting [10]) it was 80%; in the experiment on oat, wild it was 90%. The pest or weed control at 500 g/ha with pigweed, palmer amounted to 100%; in the experiment on ragweed, 60%; with ryegrass, Italian, 80%; in the experiment with galium (setting [11]), 100%. Also, the plant injury at 125 g/ha with soybean (setting [7]) was 50%. The plant injury at 500 g/ha with soybean (setting [12]) amounted to 100%; with wheat, 40%. Moreover, the pest or weed control at 250 g/ha with sedge, umbrella is 98%.
